The values that follow come from ChEMBL document CHEMBL3862012, “Methylene versus carbonyl bridge in the structure of new tubulin polymerization inhibitors with tricyclic A-rings” (Bioorg Med Chem, 2016).

Assay [1] is filed under the species Ovis aries. The experiment in a line: Inhibition of sheep brain tubulin polymerization at 100 uM by DAPI staining-based fluorimetric method relative to control.
Assay [2] in a line: Inhibition of sheep brain tubulin polymerization by DAPI staining-based fluorimetric method. More on the design: species or system Ovis aries.
Assay [3] is described as follows: Cytotoxicity against human MDA-MB-435 cells assessed as growth inhibition after 48 hrs by SRB assay. In kind it is functional. The settings on record: MDA-MB-435, 48 h.
Assay [4] is described as follows: Cytotoxicity against human HCT116 cells assessed as growth inhibition after 48 hrs by SRB assay. In kind it is functional. The note with it: HCT-116, 48 h.
Assay [5] can be described thus: Cytotoxicity against human K562 cells assessed as growth inhibition after 48 hrs by SRB assay. In kind it is functional. The note with it: K562, 48 h.
The nature of assay [6]: Cytotoxicity against human NCI-H460 cells assessed as growth inhibition after 48 hrs by SRB assay. The class given is functional. The settings on record: NCI-H460, 48 h.
Assay [7] in a line: Cytotoxicity against human OVCAR3 cells assessed as growth inhibition after 48 hrs by SRB assay. The class given is functional. The settings on record: OVCAR-3, 48 h.
The nature of assay [8]: Cytotoxicity against human SF295 cells assessed as growth inhibition after 48 hrs by SRB assay. In kind it is functional. The note with it: SF-295, 48 h.
A short description of assay [9]: Cytotoxicity against human DU145 cells assessed as growth inhibition after 48 hrs by SRB assay. The class given is functional. The settings on record: DU-145, 48 h.
A short description of assay [10]: Cytotoxicity against human A498 cells assessed as growth inhibition after 48 hrs by SRB assay. The class given is functional. The note with it: A498, 48 h.

`COc1ccc(CN2c3ccccc3Oc3ccccc32)c(C(F)(F)F)c1` yielded an inhibition in assay [1] of 44%.

As for `COc1ccc(CN2c3ccccc3Sc3cccnc32)cc1F`, in assay [1], the inhibition is 72%. In [2], this compound showed an IC50 of 10500 nM.

In assay [1], `COc1ccc(Cn2c3ccccc3c(=O)c3ccccc32)cc1F` had an inhibition of 13%.

For the compound `COc1ccc(/C=C\c2cc(OC)c(OC)c(OC)c2)cc1O` [COMBRETASTATIN A4], the GI50 came out at 3 nM in [3], 2 nM in assay [4] and 4 nM in [5].

Compound `COc1cc([C@@H]2c3cc4c(cc3C[C@H]3COC(=O)[C@@H]32)OCO4)cc(OC)c1OC` [DESOXYPODOPHYLLOTOXIN] registered an inhibition in assay [1] of 100%. This compound also displayed an IC50 in assay [2] of 2000 nM.

As for `COc1ccc(C(=O)N2c3ccccc3Sc3ccccc32)c(C(F)(F)F)c1`, in assay [1], the inhibition came out at 80%. Further, the IC50 in [2] is 11900 nM.

Consider `COc1ccc(C(=O)c2cc(OC)c(OC)c(OC)c2)cc1O` [PHENSTATIN], for which the GI50 came out at 18 nM in assay [6]; 7 nM in assay [7]; 163 nM in assay [8]; 34 nM in assay [9]; 1190 nM in assay [10]. Besides, in [1], the inhibition turned out to be 99%. The same compound gave an IC50 in [2] of 3400 nM.
